Laboratory results reported in EP0598753B1, “MANGANESE COMPLEXES OF NITROGEN-CONTAINING MACROCYCLIC LIGANDS EFFECTIVE AS CATALYSTS FOR DISMUTATING SUPEROXIDE” (MONSANTO COMPANY, priority 1991, dated 1993).
pIC50: −log10 of the molar value.

Columns and labels:
[1] = system: colonic myeloperoxidase activity; experiment: Mouse acetic acid-induced colitis model (colonic myeloperoxidase); assay type: in vivo; conditions: 30 mg/kg dose, intracolonic, 30 minutes before acetic acid, tissue after 24 hours
Procedure: Mouse colitis model. […] Mice were lightly anesthetized. A solution of 3% (v/v) aqueous acetic acid was instilled intracolonically via a flexible polyethylene tube. After 24 hours, the animals were killed and colonic tissue samples were obtained. Tissue samples were assessed biochemically for the neutrophil marker enzyme, myeloperoxidase (MPO). The colonic tissue samples were minced, homogenized in detergent, and sonicated. After centrifugation, enzyme activities were assayed spectrophotometrically by determining the decomposition of peroxide using o-dianisidine as the hydrogen donor. Data was obtained as the absorbance (460 nm) at 20 minutes. Test agents were given intracolonically at a dose of 30 mg/kg body weight 30 minutes before acetic acid instillation as a sonicated suspension in 0.5% aqueous methyl cellulose. Vehicle was given to appropriate acetic acid control animals. Normal tissue was obtained from control animals which received only vehicle. Colonic myeloperoxidase activities were determined as units/g wet weight of tissue. Reduction of colonic myeloperoxidase activity by test agents in acetic acid-treated mice is expressed as % inhibition (Table 2). Colonic myeloperoxidase activity correlated with the degree of tissue inflammation as assessed by visual and histological analysis.

[2] = system: human aortic endothelial cells (HAE cells)
From the text: (§1) Human peripheral blood neutrophils were isolated from fresh venous blood of healthy volunteers. EDTA anticoagulated blood was separated using a single step density centrifugation (Polymorphprep; Nycomed Pharma, Oslo, Norway) followed by several washes in Hank's balanced salt solution supplemented with 0.5% BSA (Bovine Serum Albumin) (HBSSB) and the hypertonic lysis of erythrocytes. Neutrophils were counted via Coulter electronic particle counter and resuspended in HBSSB supplemented with 25% Endothelial Basal Medium (EBM), (Clonetics Corporation, San Diego, CA) at a concentration of 5 x 10^6 polymorphonuclear leukocytes (PMN)/ml.
(§2) The cytotoxic effects of stimulated neutrophils on endothelial cells were determined using a ^51Cr-release assay as previously described (Moldow, C.F., and Jacob, H.S. (1984) Methods Enzymol. 105, 378-385). Confluent monolayers of human aortic endothelial cells (HAE cells; Clonetics) grown in 96-well culture plates were prelabeled with 1 µCi/well ^51Cr (Na2 ^51Cr2O4, New England Nuclear, Boston, MA). The cells were incubated for 18 h at 37°C, then cytokine-activated with 10 Units/well human recombinant tumor necrosis factor-a (hrTNF-α; Monsanto Company, St. Louis, MO) for 4 h at 37°C. The cells were washed twice to remove unincorporated radioactivity with Hank's balanced salt solution supplemented with 0.5% BSA. To assess inhibition of PMN-mediated cytotoxicity, manganese(II) complexes at various doses (0-300 µM) were added to five replicate wells/dose of HAE cells immediately prior to the addition of PMN. Suspensions of PMN in HBSSB supplemented with 25% Endothelial Basal Medium were added to the wells at a neutrophil to endothelial cell ratio of 50:1. The PMN were allowed to adhere for 15 minutes at 37°C, primed with 125 Units/well hrTNF-α (Berkow, R.L., Wang, D., Larrick, J.W., Dodson, R.W., and Howard, T.H. (1987) J. Immunol. 139, 3783-3791; Varani, J.; Bendelow, M. J. Sealey, D. E.; Kunkel, S. L.; Gannon, D. E.; Ryan, U.S.; and Ward, P.A. (1987) Lab. Invest., 59, 292-295) for 10 minutes, and stimulated with human recombinant complement component C5a (Sigma Chemical, St. Louis, MO). […] After an additional incubation of 4 hours at 37°C, 200 µl of the 250 µl reaction volume (soluble fraction) was removed to a tube for counting. The cells were washed twice with 200 µl HBSSB (nonadherent fraction) and the washes pooled with the soluble fraction. The adherent fraction was collected by lysing the HAE cells with 200 µl 1N NaOH for 30 minutes and removing to separate tubes. Both fractions were analyzed by gamma scintillation spectrometry. The percentage cytotoxicity was calculated by the following formula: % Cytotoxicity =(cpm (soluble + nonadherent fractions))/(cpm (soluble + nonadherent + adherent fractions))x 100 [formula] Specific cytotoxicity reflects the difference between ^51Cr-release induced by stimulated PMN and unstimulated PMN. The IC50 values for the manganese(II) complexes for protection against neutrophil-mediated cytotoxicity were determined from a computer-driven logistic regression equation from a plot of % specific cytotoxicity versus the concentration of the manganese(II) complex.

[3] = Stopped-flow kinetic analysis of catalytic dismutation of superoxide; assay type: biochemical; conditions: catalytic rate constant for dismutation of superoxide, pH 8.1 and 21°C
From the text: Stopped-flow kinetic analysis is an accurate and direct method for quantitatively monitoring the decay rates of superoxide in water.
For the attainment of consistent and accurate measurements all reagents were biologically clean and metal-free. To achieve this, all buffers (Calbiochem) were biological grade, metal-free buffers and were handled with utensils which had been washed first with 0.1 N HCl, followed by purified water, followed by a rinse in a 10^-4 M EDTA bath at pH 8, followed by a rinse with purified water and dried at 65°C for several hours. Dry DMSO solutions of potassium superoxide (Aldrich) were prepared under a dry, inert atmosphere of argon in a Vacuum Atmospheres dry glovebox using dried glassware. The DMSO solutions were prepared immediately before every stopped-flow experiment. A mortar and pestle were used to grind the yellow solid potassium superoxide (~100 mg). The powder was then ground with a few drops of DMSO and the slurry transferred to a flask containing an additional 25 ml of DMSO. The resultant slurry was stirred for 1/2 h and then filtered. […] These solutions were transferred to a glovebag under nitrogen in sealed vials prior to loading the syringe under nitrogen. It should be noted that the DMSO/superoxide solutions are extremely sensitive to water, heat, air, and extraneous metals. A fresh, pure solution has a very slight yellowish tint.
Water for buffer solutions was delivered from an in-house deionized water system to a Barnstead Nanopure Ultrapure Series 550 water system and then double distilled, first from alkaline potassium permanganate and then from a dilute EDTA solution. For example, a solution containing 1.0 g of potassium permanganate, 2 liters of water and additional sodium hydroxide necessary to bring the pH to 9.0 were added to a […] fitted with a solvent distillation head. This distillation will oxidize any trace of organic compounds in the water. The final distillation was carried out under nitrogen in a 2.5-liter flask containing 1500 ml of water from the first still and 1.0 x 10^-6M EDTA. This step will remove remaining trace metals from the ultrapure water. To prevent EDTA mist from volatilizing over the reflux arm to the still head, the 40-cm vertical arm was packed with glass beads and wrapped with insulation. This system produces deoxygenated water that can be measured to have a conductivity of less than 2.0 nanomhos/cm^2.
The stopped-flow spectrometer system was designed and manufactured by Kinetic Instruments Inc. (Ann Arbor, MI) and was interfaced to a MAC IICX personal computer. The software for the stopped-flow analysis was provided by Kinetics Instrument Inc. and was written in QuickBasic with MacAdios drivers. Typical injector volumes (0.10 ml of buffer and 0.006 ml of DMSO) were calibrated so that a large excess of water over the DMSO solution were mixed together. […] Aqueous solutions to be mixed with the DMSO solution of superoxide were prepared using 80 mM concentrations of the Hepes buffer, pH 8.1 (free acid + Na form). One of the reservoir syringes was filled with 5 ml of the DMSO solution while the other was filled with 5 ml of the aqueous buffer solution. The entire injection block, mixer, and spectrometer cell were immersed in a thermostatted circulating water bath with a temperature of 21.0 ± 0.5°C.
Prior to initiating data collection for a superoxide decay, a baseline average was obtained by injecting several shots of the buffer and DMSO solutions into the mixing chamber. These shots were averaged and stored as the baseline.

[4] = system: human aortic endothelial cells (HAE cells); experiment: Neutrophil-mediated cytotoxicity assay (51Cr-release); conditions: 50% inhibition of specific cytotoxicity; human neutrophil-mediated killing of human aortic endothelial cells
From the text: as §1, §2

| Compound | % Inhibition of Colonic Myeloperoxidase Activity [1] | protection against human neutrophil-mediated cytotoxicity, in words [2] | kCAT [3] | pIC50 [4] |
| --- | --- | --- | --- | --- |
| [Manganese(II)diacetate(1,4,7,10,13-Pentaazacyclopentadecane)] [Example 8] | 32% | protective against human neutrophil-mediated cytotoxicity | – | – |
| CC(C)CC1CNCCNCCNCCNCCN1.[Cl-].[Cl-].[Mn+2] (centres unmarked) [Example 5, [Manganese(II)dichloro(2-(2-Methylpropyl)-1,4,7,10,13-pentaazacyclopentadecane)]] | 70% | protective against human neutrophil-mediated cytotoxicity | – | – |
| [Manganese(II)dichloro((S)-2-Methyl-1,4,7,10,13-pentaazacyclopentadecane)] [Example 3] | 42% | protective against human neutrophil-mediated cytotoxicity | 2.39e+07 M⁻¹ s⁻¹ | 4.43 |
| CC1CNCCNCCNCCNCCN1.[Cl-].[Cl-].[Mn+2] (centres unmarked) [Example 2, [Manganese(II)dichloro(2-Methyl-1,4,7,10,13-pentaazacyclopentadecane)]] | 47% | protective against human neutrophil-mediated cytotoxicity | 2.67e+07 M⁻¹ s⁻¹ | – |
| C1CNCCNCCNCCNCCN1.F[P-](F)(F)(F)(F)F.[Cl][Mn+] [Example 27, [Manganese(II)chloro(1,4,7,10,13-Pentaazacyclopentadecane)]Hexafluorophosphate] | – | protective against human neutrophil-mediated cytotoxicity | 2.4e+07 M⁻¹ s⁻¹ | 4.59 |
| C1CCC(CC2CNCCNCCNCCNCCN2)CC1.[Cl-].[Cl-].[Mn+2] (centres unmarked) [Example 7, [Manganese(II)dichloro(2-Cyclohexylmethyl-1,4,7,10,13-pentaazacyclopentadecane)]] | 77% | protective against human neutrophil-mediated cytotoxicity | – | 4.66 |
